Test results: PubChem BioAssay (NCI)
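Grown in 96-well plates, cells were treated for 48 hours with each compound at five concentrations. Insufficient inhibition: endpoint recorded as highest concentration tested. The concentration for 50% growth inhibition is given as GI50. The concentration for full growth arrest is given as TGI.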

Tests used:
Assay in all cases: DTP human tumour cell line panel, 48 h
[1] = test system: CCRF-CEM leukemia
[2] = test system: RXF-631 renal
[3] = test system: NCI-H226 lung
[4] = test system: SW-620 colon
[5] = test system: HT29 colon
[6] = test system: SR leukemia
[7] = test system: SF-539 CNS
[8] = test system: UACC-257 melanoma
[9] = test system: HCT-15 colon
[10] = test system: A549 NSCLC
[11] = test system: K-562 leukemia
[12] = test system: SN12C renal
[13] = test system: HL-60(TB) leukemia
[14] = test system: NCI-H460 lung
[15] = test system: CAKI-1 renal
[16] = test system: RPMI-8226 leukemia
[17] = test system: SK-OV-3 ovarian
[18] = test system: SNB-75 CNS
[19] = test system: TK-10 renal
[20] = test system: UACC-62 melanoma
[21] = test system: RXF 393 renal
[22] = test system: EKVX NSCLC
[23] = test system: HCT-116 colon
[24] = test system: MOLT-4 leukemia
[25] = test system: MALME-3M melanoma
[26] = test system: SNB-19 CNS
[27] = test system: SF-295 CNS
[28] = test system: OVCAR-8 ovarian
[29] = test system: M14 melanoma
[30] = test system: SK-MEL-28 melanoma
[31] = test system: IGROV1 ovarian
[32] = test system: UO-31 renal
[33] = test system: NCI-H23 lung
[34] = test system: LOX IMVI melanoma
[35] = test system: OVCAR-5 ovarian
[36] = test system: OVCAR-3 ovarian
[37] = test system: ACHN renal
[38] = test system: NCI-H522 lung
[39] = test system: COLO 205 colon
[40] = test system: OVCAR-4 ovarian
[41] = test system: KM12 colon
[42] = test system: HOP-92 NSCLC
[43] = test system: U251 CNS
[44] = test system: HCC-2998 colon
[45] = test system: SF-268 CNS
[46] = test system: KM20L2 colon
[47] = test system: SK-MEL-5 melanoma
[48] = test system: 786-0 renal
[49] = test system: A498 renal
[50] = test system: M19-MEL melanoma
[51] = test system: DMS 273 small cell lung
[52] = test system: HOP-62 NSCLC
[53] = test system: DLD-1 colon
[54] = test system: SK-MEL-2 melanoma
[55] = test system: SNB-78 CNS
[56] = test system: DMS 114 small cell lung
[57] = test system: LXFL 529 NSCLC

SMILES: Nc1ccccc1Nc1ccccc1C(=O)[O-].Nc1ccccc1Nc1ccccc1C(=O)[O-].[Ni+2]
- TGI [1]: > 100 µM
- GI50 [2]: > 100 µM
- TGI [2]: > 100 µM
- GI50 [3]: > 100 µM
- TGI [3]: > 100 µM
- TGI [4]: > 100 µM
- TGI [5]: > 100 µM
- GI50 [6]: > 100 µM
- TGI [6]: > 100 µM
- TGI [7]: > 100 µM
- TGI [8]: > 100 µM
- TGI [9]: > 100 µM
- TGI [10]: > 100 µM
- TGI [11]: > 100 µM
- TGI [12]: > 100 µM
- GI50 [13]: > 100 µM
- TGI [13]: > 100 µM
- TGI [14]: > 100 µM
- TGI [15]: > 100 µM
- TGI [16]: > 100 µM
- TGI [17]: > 100 µM
- TGI [18]: > 100 µM
- TGI [19]: > 100 µM
- TGI [20]: > 100 µM
- GI50 [21]: 60.1 µM
- TGI [21]: > 100 µM
- TGI [22]: > 100 µM
- TGI [23]: > 100 µM
- TGI [24]: > 100 µM
- TGI [25]: > 100 µM
- TGI [26]: > 100 µM
- TGI [27]: > 100 µM
- TGI [28]: > 100 µM
- TGI [29]: > 100 µM
- TGI [30]: > 100 µM
- TGI [31]: > 100 µM
- TGI [32]: > 100 µM
- TGI [33]: > 100 µM
- GI50 [34]: > 100 µM
- TGI [34]: > 100 µM
- TGI [35]: > 100 µM
- TGI [36]: > 100 µM
- TGI [37]: > 100 µM
- TGI [38]: 86 µM
- TGI [39]: > 100 µM
- GI50 [40]: 67.8 µM
- TGI [40]: > 100 µM
- TGI [41]: > 100 µM
- GI50 [42]: > 100 µM
- TGI [42]: > 100 µM
- TGI [43]: > 100 µM
- TGI [44]: > 100 µM
- TGI [45]: > 100 µM
- TGI [46]: > 100 µM
- TGI [47]: > 100 µM
- TGI [48]: > 100 µM

SMILES: NC(=O)c1cn(C2OC(CO)C(O)C2O)c(=O)[nH]c1=O (configuration not stated)
- TGI [1]: > 100 µM
- TGI [2]: > 100 µM
- TGI [49]: > 100 µM
- TGI [3]: > 100 µM
- TGI [4]: > 100 µM
- TGI [50]: > 100 µM
- TGI [5]: > 100 µM
- TGI [6]: > 100 µM
- TGI [51]: > 100 µM
- TGI [7]: > 100 µM
- TGI [8]: > 100 µM
- TGI [9]: > 100 µM
- TGI [10]: > 100 µM
- TGI [11]: > 100 µM
- TGI [13]: > 100 µM
- TGI [14]: > 100 µM
- TGI [15]: > 100 µM
- TGI [16]: > 100 µM
- TGI [52]: > 100 µM
- TGI [17]: > 100 µM
- TGI [18]: > 100 µM
- TGI [19]: > 100 µM
- TGI [20]: > 100 µM
- TGI [22]: > 100 µM
- TGI [23]: > 100 µM
- TGI [24]: > 100 µM
- TGI [53]: > 100 µM
- TGI [54]: > 100 µM
- TGI [55]: > 100 µM
- TGI [27]: > 100 µM
- TGI [28]: > 100 µM
- TGI [29]: > 100 µM
- TGI [30]: > 100 µM
- TGI [31]: > 100 µM
- TGI [32]: > 100 µM
- TGI [56]: > 100 µM
- TGI [33]: > 100 µM
- TGI [34]: > 100 µM
- TGI [35]: > 100 µM
- TGI [36]: > 100 µM
- TGI [37]: > 100 µM
- TGI [38]: > 100 µM
- TGI [39]: > 100 µM
- TGI [40]: > 100 µM
- TGI [41]: > 100 µM
- TGI [42]: > 100 µM
- TGI [43]: > 100 µM
- TGI [45]: > 100 µM
- TGI [57]: > 100 µM
- TGI [47]: > 100 µM
- TGI [48]: > 100 µM
